Data from PMC12040169 (PLOS Biology, 2025).

Columns and labels:
[1] = test system: T1, C. trachomatis L2/434/Bu expressing GFP (CTL2-GFP); assay: microbe, parasite or virus in culture; design: C. trachomatis total inclusion area by high-content imaging, normalised to DMSO; details: Chlamydia trachomatis, HeLa, 28.5 h; total inclusion area; read-out: % of control remaining
T1 construct: L2/434/Bu GFP intracellular growth in HeLa cells
Procedure, shortened: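 First, bulk GFP and resorufin signals were measured in compound-treated infected cultures. Cells were next fixed and stained with Hoechst. Finally, high-content imaging quantified chlamydial inclusions (area, number) and host nuclei, and MICs were calculated.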

[2] = test system: T2, CTL2-GFP (C. trachomatis L2/434/Bu, GFP-expressing); assay: microbe, parasite or virus in culture; design: Intracellular C. trachomatis growth in HeLa cells, bulk GFP fluorescence relative to DMSO; details: Chlamydia trachomatis, HeLa, 28.5 h; bulk GFP, mean of 2; read-out: % of control remaining
T2 construct: L2/434/Bu, GFP-expressing
Procedure: MICs were calculated as described above.

in vitro [3] = assay: in vitro; design: Viability of infected HeLa host cells, resazurin conversion, bulk resorufin fluorescence relative to DMSO; details: human, hela cells; bulk resorufin, mean of 2
in vitro [4] = details: human, hela cells, % viability

Structure (SMILES) | activity at 1 µM [1] [%] | activity at 5 µM [1] [%] | activity at 10 µM [1] [%] | activity at 1 µM [2] [%] | activity at 5 µM [2] [%] | activity at 10 µM [2] [%] | viability at 28.5 h, 1 µM (in vitro [3]) [%] | viability at 28.5 h, 5 µM (in vitro [3]) [%] | viability at 28.5 h, 10 µM (in vitro [3]) [%] | viability at 28.5 h, 10 µM (in vitro [4]) [%]
CCn1c2c(c3cc(S(=O)(=O)c4ccc(C(F)(F)F)cc4)ccc31)CCNCC2 [CBK018453C] | 133 | 58.6 | 12.8 | 143 | 54.5 | 5.22 | 94.5 | 89.4 | 91.9 | 97.5
O=C(Nc1ccc(OC(F)(F)F)cc1)Nc1cc(-c2cccs2)n[nH]1 [CBK020563] | 96.5 | 24 | 10.2 | 100 | 13.4 | 4.7 | 113 | 110 | 117 | 82.5
COc1ccc([C@@]23CC[C@@H](Nc4nc(-c5ccc(Br)cc5)cs4)C[C@@H]2N(C)CC3)cc1OC [CBK036543] | 76.2 | 68.6 | 45.2 | 138 | 104 | 94.2 | 91.3 | 91 | 109 | 87.7
O=C(Nc1cc(Cl)nc(Cl)c1)N(Cc1ccc2ccccc2c1)CC1CCNCC1 [CBK049773] | 120 | 75.2 | 44.5 | 131 | 84.2 | 61.7 | 95.5 | 95.6 | 96.4 | 105
O=C(Nc1cc(Cl)nc(Cl)c1)N(Cc1ccc(-c2ccccc2)cc1)CC1CCNCC1 [CBK049794] | 62.1 | 41.7 | 25.8 | 115 | 90.8 | 90.8 | 95.2 | 100 | 97.9 | 82.6
c1ccc2c3c([nH]c2c1)C1(CCN(CCC2CCCCC2)C1)OCC3 (stereo not shown) [CBK061789] | 51.4 | 5.37 | 3.22 | 168 | 72.4 | 23.7 | 92.9 | 90 | 84.9 | 83.3
COc1ccc(C(C)C)cc1-c1cn2ccnc2c(N2CCN(c3ccncc3)CC2)n1 [CBK066217] | 96.6 | 75.5 | 31.5 | 91.5 | 63.5 | 28.4 | 102 | 104 | 101 | 116
COc1cc(C=C2SC(NCC(=O)O)=NC2=O)ccc1OCc1ccc(Cl)cc1Cl [CBK297555] | 110 | 86.9 | 44 | 135 | 155 | 200 | 88.5 | 92.1 | 88.9 | 
Cn1nnnc1-c1cccc(NC(=O)c2ccc(Oc3ccccc3)cc2)c1 [CBK297872] | 118 | 74.5 | 30.8 | 124 | 73.3 | 27.8 | 95.1 | 88.4 | 89.1 | 
CC(Cc1nc(-c2nccn2C(C)C)cs1)n1cc(Cl)cn1 (stereo not shown) [CBK304251] | 109 | 55.7 | 28.6 | 125 | 70.4 | 46.9 | 90.7 | 96.5 | 92.9 | 
Cc1cccc(OCC(C)NC(=O)NCCc2cnn(C)c2)c1 (stereo not shown) [CBK304887] | 120 | 47.6 | 19.4 | 115 | 43.5 | 16.5 | 100 | 98.5 | 89.3 | 
COCCNc1nc2c(c(N3CCCCCC3)n1)CCNCC2 [CBK306724] | 79.4 | 0.64 | 0.424 | 76 | 7.81 | 4.81 | 98 | 97.9 | 92.9 | 
